# Experiments:
# Type in all cases: in vivo
# [1] = test system: barnyardgrass (Echinochloa oryzicola Vasing.); assay: Test Example 4: herbicidal effects of mixed wettable powder, paddy-field pot test; settings: no second compound, after 25 days
# Method in brief: (§1)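 Flooded greenhouse pots of paddy soil were sown in the top 1 cm with dormancy-broken weed seeds and planted with tubers, and 2.2-leaf rice was transplanted. Three days later, water-diluted wettable powder was applied at set dosages, and growth inhibition was rated 25 days after that on a 0 (0–15%) to 5 (96–100%) scale.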
# Cyperus serotinus [2] = assay: as above; settings: no second compound, after 25 days
# Method in brief: as §1
# Eleocharis kuroguwai = assay: as above; settings: no second compound, after 25 days
# Method in brief: as §1
# [3] = test system: annual broad-leaved weeds (Lindernia spp. and Rotala indica); assay: as above; settings: no second compound, after 25 days
# Method in brief: as §1
# Sagittaria pygmaea = assay: as above; settings: no second compound, after 25 days
# Method in brief: as §1
# Scirpus joncoides [4] = assay: as above; settings: no second compound, after 25 days
# Method in brief: as §1
# barnyardgrass = assay: Test Example 2: herbicidal effects (soil treatment); settings: soil treatment the day after seeding, judged after 21 days
# Text: (§2) Judgment Standard • 0: Growth inhibition rate; 0 to 10% • 1: Growth inhibition rate; 11 to 30% • 2: Growth inhibition rate; 31 to 50% • 3: Growth inhibition rate; 51 to 70% • 4: Growth inhibition rate; 71 to 90% • 5: Growth inhibition rate; 91 to 100%.
# (§3) Upland soil was filled in 150 cm^2 pot, and seeds of barnyardgrass and indian mustard (Brassica juncea (L.) Czern. et Coss) were sowed, and grown in a greenhouse. At the next day of seeding, a predetermined chemical dosage of the wettable powder prepared in accordance with Preparation example 1 was diluted in water and applied to soil surface. After 21 days from the treatment, herbicidal effects were judged in accordance with the judgment standard of Test example 1, and the results were shown in Table 3.
# [5] = test system: indian mustard (Brassica juncea (L.) Czern. et Coss); assay: as above; settings: soil treatment the day after seeding, judged after 21 days
# Text: as §2, §3
# [6] = test system: transplanted paddy-field rice; assay: Test Example 1: crop injury against transplanted paddy-field rice; settings: wettable powder applied 3 days after transplanting, judged after 25 days
# Method in brief: (§4)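 Greenhouse, flooded paddy soil; weeds from seed (top 1 cm), C. serotinus from germinated tubers, rice transplanted at 2.2-leaf stage. WP diluted in water, applied to pot day 3 post-transplant. Scored day 25 post-treatment, 0–5 inhibition scale.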
# [7] = test system: transplanted paddy-field rice; assay: Test Example 4: crop injury against transplanted paddy-field rice; settings: no second compound, after 25 days
# Method in brief: as §1
# black nightshade = assay: Test Example 3: herbicidal effects (foliar treatment); settings: chemical dosage 2 kg/a; foliar treatment at 10 to 15 cm; judged after 14 days
# Protocol: as §2
# (§5) Upland soil was filled in 150 cm^2 pot, and seeds of velvetleaf, tall morningglory, indian mustard, black nightshade redroot pigweed were sowed, and grown in a greenhouse. After the weeds were grown with 10 to 15 cm or so, a predetermined chemical dosage of the wettable powder prepared in accordance with Preparation example 1 was diluted with water containing 0.05% of GRAMIN-S and applied as a foliar treatment. After 14 days from the treatment, herbicidal effects were judged in accordance with the judgment standard of Test example 1, and the results were shown in Table 4. Incidentally, “-” in the table means no test was carried out.
# tall morningglory = assay: as above; settings: foliar treatment at 10 to 15 cm, judged after 14 days
# Protocol: as §2, §5
# velvetleaf = assay: as above; settings: chemical dosage 2 kg/a; foliar treatment at 10 to 15 cm; judged after 14 days
# Protocol: as §2, §5
# indian mustard = assay: as above; settings: foliar treatment at 10 to 15 cm, judged after 14 days
# Protocol: as §2, §5
# redroot pigweed = assay: as above; settings: foliar treatment at 10 to 15 cm, judged after 14 days
# Protocol: as §2, §5
# [8] = test system: barnyardgrass (Echinochloa oryzicola Vasing.); assay: Test Example 1: herbicidal effects, paddy-field pot test; settings: wettable powder applied 3 days after transplanting, judged after 25 days
# Method in brief: as §4
# Cyperus serotinus [9] = assay: as above; settings: wettable powder applied 3 days after transplanting, judged after 25 days
# Method in brief: as §4
# [10] = test system: annual broad-leaved weeds (Lindernia spp., Rotala indica); assay: as above; settings: wettable powder applied 3 days after transplanting, judged after 25 days
# Method in brief: as §4
# Scirpus joncoides [11] = assay: as above; settings: wettable powder applied 3 days after transplanting, judged after 25 days
# Method in brief: as §4
smiles,measurement,setting,value
Cc1cccc(C2CC2)c1Oc1nnc(Cl)cc1O [Example 23],Herbicidal effects Barnyard grass,[1]; derivative 5 g/a,2 (Growth inhibition rate; 36 to 55%)
same,Herbicidal effects Barnyard grass,[1]; derivative 10 g/a,3 (Growth inhibition rate; 56 to 75%)
same,Herbicidal effects Cyperus serotinus,Cyperus serotinus [2]; derivative 5 g/a,5 (Growth inhibition rate; 96 to 100%)
same,Herbicidal effects Cyperus serotinus,Cyperus serotinus [2]; derivative 10 g/a,5 (Growth inhibition rate; 96 to 100%)
same,Herbicidal effects Eleocharis kuroguwai,Eleocharis kuroguwai; derivative 5 g/a,2 (Growth inhibition rate; 36 to 55%)
same,Herbicidal effects Eleocharis kuroguwai,Eleocharis kuroguwai; derivative 10 g/a,3 (Growth inhibition rate; 56 to 75%)
same,Herbicidal effects Broad leaf,[3]; derivative 5 g/a,5 (Growth inhibition rate; 96 to 100%)
same,Herbicidal effects Broad leaf,[3]; derivative 10 g/a,5 (Growth inhibition rate; 96 to 100%)
same,Herbicidal effects Sagittaria pygmaea,Sagittaria pygmaea; derivative 5 g/a,5 (Growth inhibition rate; 96 to 100%)
same,Herbicidal effects Sagittaria pygmaea,Sagittaria pygmaea; derivative 10 g/a,5 (Growth inhibition rate; 96 to 100%)
same,Herbicidal effects Scirpus joncoides,Scirpus joncoides [4]; derivative 5 g/a,5 (Growth inhibition rate; 96 to 100%)
same,Herbicidal effects Scirpus joncoides,Scirpus joncoides [4]; derivative 10 g/a,5 (Growth inhibition rate; 96 to 100%)
same,Herbicidal effects Barnyard-grass,barnyardgrass; dosage 2 kg/a,4 (Growth inhibition rate; 71 to 90%)
same,Herbicidal effects indian mustard,[5]; dosage 2 kg/a,5 (Growth inhibition rate; 91 to 100%)
same,Crop injury against transplanted rice,[6]; chemical dosage 10 g/a,0 (Growth inhibition rate; 0 to 10%)
same,Crop injury against transplanted rice,[6]; chemical dosage 20 g/a,2 (Growth inhibition rate; 31 to 50%)
same,Crop injury against transplanted rice,[7]; derivative 5 g/a,0 (Growth-inhibition rate; 0 to 15%)
same,Crop injury against transplanted rice,[7]; derivative 10 g/a,0 (Growth-inhibition rate; 0 to 15%)
same,Herbicidal effects Black Night-shade,black nightshade,5 (Growth inhibition rate; 91 to 100%)
same,Herbicidal effects Tall Morningglory,tall morningglory; chemical dosage 2 kg/a,5 (Growth inhibition rate; 91 to 100%)
same,Herbicidal effects Velvet-leaf,velvetleaf,4 (Growth inhibition rate; 71 to 90%)
same,Herbicidal effects indian mustard,indian mustard; chemical dosage 2 kg/a,5 (Growth inhibition rate; 91 to 100%)
same,Herbicidal effects Redroot pigweed,redroot pigweed; chemical dosage 2 kg/a,4 (Growth inhibition rate; 71 to 90%)
same,Herbicidal effects Barnyard grass,[8]; chemical dosage 10 g/a,3 (Growth inhibition rate; 51 to 70%)
same,Herbicidal effects Barnyard grass,[8]; chemical dosage 20 g/a,4 (Growth inhibition rate; 71 to 90%)
same,Herbicidal effects Cyperus serotinus,Cyperus serotinus [9]; chemical dosage 10 g/a,5 (Growth inhibition rate; 91 to 100%)
same,Herbicidal effects Cyperus serotinus,Cyperus serotinus [9]; chemical dosage 20 g/a,5 (Growth inhibition rate; 91 to 100%)
same,Herbicidal effects Broad leaf,[10]; chemical dosage 10 g/a,5 (Growth inhibition rate; 91 to 100%)
same,Herbicidal effects Broad leaf,[10]; chemical dosage 20 g/a,5 (Growth inhibition rate; 91 to 100%)
same,Herbicidal effects Scirpus joncoides,Scirpus joncoides [11]; chemical dosage 10 g/a,5 (Growth inhibition rate; 91 to 100%)
same,Herbicidal effects Scirpus joncoides,Scirpus joncoides [11]; chemical dosage 20 g/a,5 (Growth inhibition rate; 91 to 100%)
Oc1cc(Cl)nnc1Oc1c(F)cccc1C1CC1 [Example 236],Herbicidal effects Barnyard-grass,barnyardgrass; dosage 5 kg/a,3 (Growth inhibition rate; 51 to 70%)
same,Herbicidal effects indian mustard,[5]; dosage 5 kg/a,5 (Growth inhibition rate; 91 to 100%)
same,Crop injury against transplanted rice,[6]; chemical dosage 10 g/a,0 (Growth inhibition rate; 0 to 10%)
same,Crop injury against transplanted rice,[6]; chemical dosage 20 g/a,0 (Growth inhibition rate; 0 to 10%)
same,Herbicidal effects Tall Morningglory,tall morningglory; chemical dosage 0.5 kg/a,4 (Growth inhibition rate; 71 to 90%)
same,Herbicidal effects indian mustard,indian mustard; chemical dosage 0.5 kg/a,3 (Growth inhibition rate; 51 to 70%)
same,Herbicidal effects Redroot pigweed,redroot pigweed; chemical dosage 0.5 kg/a,3 (Growth inhibition rate; 51 to 70%)
same,Herbicidal effects Barnyard grass,[8]; chemical dosage 10 g/a,3 (Growth inhibition rate; 51 to 70%)
same,Herbicidal effects Barnyard grass,[8]; chemical dosage 20 g/a,4 (Growth inhibition rate; 71 to 90%)
same,Herbicidal effects Cyperus serotinus,Cyperus serotinus [9]; chemical dosage 10 g/a,5 (Growth inhibition rate; 91 to 100%)
same,Herbicidal effects Cyperus serotinus,Cyperus serotinus [9]; chemical dosage 20 g/a,5 (Growth inhibition rate; 91 to 100%)
same,Herbicidal effects Broad leaf,[10]; chemical dosage 10 g/a,5 (Growth inhibition rate; 91 to 100%)
same,Herbicidal effects Broad leaf,[10]; chemical dosage 20 g/a,5 (Growth inhibition rate; 91 to 100%)
same,Herbicidal effects Scirpus joncoides,Scirpus joncoides [11]; chemical dosage 10 g/a,5 (Growth inhibition rate; 91 to 100%)
same,Herbicidal effects Scirpus joncoides,Scirpus joncoides [11]; chemical dosage 20 g/a,5 (Growth inhibition rate; 91 to 100%)
